This is an account of results in ChEMBL document CHEMBL1201862, “PubChem BioAssay data set” (2004).

The structures appear in SMILES notation. Activity calls are given as the source filed them.

As usually defined, the IC50 is the concentration that inhibits the measured activity by half. The term EC50 denotes the concentration that produces a half-maximal response. In general, AC50 refers to the concentration giving half of the maximal activity seen. Broadly, the Ki is a dissociation constant, usually derived from enzyme kinetics or from competition with a known ligand.

Assay [1] concerns the target SUMO-activating enzyme (Homo sapiens, UniProt Q9UBT2). As to the kind of experiment: SUMOylation inhibitor hit validation, confirmation, SUMOylation inhibitor project, biochemical, AlphaScreen (AID 2018). Type of assay: functional. For orientation: Bead proximity is the source of the signal in Alpha formats.
In assay [2] the target is T1, Protein RecA (Mycobacterium tuberculosis, UniProt P9WHJ3).
T1 sequence (P9WHJ3 whole entry): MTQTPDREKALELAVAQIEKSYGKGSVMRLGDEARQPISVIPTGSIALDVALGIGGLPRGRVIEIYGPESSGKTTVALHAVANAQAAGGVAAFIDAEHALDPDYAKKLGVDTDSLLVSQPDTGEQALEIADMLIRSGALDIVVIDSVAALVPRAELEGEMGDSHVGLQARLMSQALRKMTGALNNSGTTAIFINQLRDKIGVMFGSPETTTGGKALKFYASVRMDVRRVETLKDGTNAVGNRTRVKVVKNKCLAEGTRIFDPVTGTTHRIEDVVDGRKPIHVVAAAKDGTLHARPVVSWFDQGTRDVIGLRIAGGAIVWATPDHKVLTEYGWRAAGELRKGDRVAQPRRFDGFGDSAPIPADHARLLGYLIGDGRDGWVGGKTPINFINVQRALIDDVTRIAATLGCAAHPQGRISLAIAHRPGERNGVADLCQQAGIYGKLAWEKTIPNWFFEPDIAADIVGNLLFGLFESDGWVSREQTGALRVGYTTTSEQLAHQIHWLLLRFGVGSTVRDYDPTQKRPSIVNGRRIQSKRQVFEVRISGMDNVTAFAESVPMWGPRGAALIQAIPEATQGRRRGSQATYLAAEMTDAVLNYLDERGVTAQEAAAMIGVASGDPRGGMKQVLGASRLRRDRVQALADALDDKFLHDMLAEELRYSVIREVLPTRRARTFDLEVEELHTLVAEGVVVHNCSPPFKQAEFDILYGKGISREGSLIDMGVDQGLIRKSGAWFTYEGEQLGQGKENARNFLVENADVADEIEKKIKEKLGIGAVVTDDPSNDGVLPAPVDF
As to the kind of experiment: Fluorescence Cell-Free Homogeneous Dose Retest to Identify Inhibitors of RecA-Intein Splicing Activity. [Related pubchem assays (depositor defined):AID2097, AID2223, AID489010, AID492950]. It is filed as functional.

Assay [3] addresses Serine/threonine-protein phosphatase PP1-alpha catalytic subunit (Homo sapiens, UniProt P62136). As to the kind of experiment: PP1 phosphatase inhibitors, dose response, biochemical, fluorescence (AID 2394).
The subject of assay [4] is A-375. As to the kind of experiment: MITF: Counter assay: A375 proliferation Measured in Cell-Based System Using Plate Reader - 2084-03_Inhibitor_Dose_DryPowder_Activity. [Related pubchem assays (depositor defined):AID488944]. Type of assay: functional. The note with it: Homo sapiens.
Assay [5] is described as follows: cytotoxicity toward NIH3T3 fibroblasts, dose response, counter-screen, cell-based, ATP luminescence, mouse fibroblasts (AID 2010).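 Note: cells exposed to compound for about 90 hours before reading.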 It is filed as functional.
The target in assay [6] is T2, Caspase-3 (Homo sapiens, UniProt P42574).
T2 sequence (P42574 whole entry): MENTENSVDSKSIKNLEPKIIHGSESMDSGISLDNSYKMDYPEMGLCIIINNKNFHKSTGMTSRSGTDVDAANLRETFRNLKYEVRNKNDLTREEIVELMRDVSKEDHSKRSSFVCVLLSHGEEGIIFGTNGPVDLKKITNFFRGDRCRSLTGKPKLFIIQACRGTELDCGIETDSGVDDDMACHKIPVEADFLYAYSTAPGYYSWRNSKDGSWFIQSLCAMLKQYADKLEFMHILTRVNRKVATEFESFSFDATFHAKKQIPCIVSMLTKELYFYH
As to the kind of experiment: procaspase-3 activators, dose response, biochemical, absorbance (AID 489014).

The target of assay [7] is Induced myeloid leukemia cell differentiation protein Mcl-1 (Homo sapiens, UniProt Q07820). Type of assay: functional.
Sequence of Induced myeloid leukemia cell differentiation protein Mcl-1 (Q07820 whole entry, canonical isoform): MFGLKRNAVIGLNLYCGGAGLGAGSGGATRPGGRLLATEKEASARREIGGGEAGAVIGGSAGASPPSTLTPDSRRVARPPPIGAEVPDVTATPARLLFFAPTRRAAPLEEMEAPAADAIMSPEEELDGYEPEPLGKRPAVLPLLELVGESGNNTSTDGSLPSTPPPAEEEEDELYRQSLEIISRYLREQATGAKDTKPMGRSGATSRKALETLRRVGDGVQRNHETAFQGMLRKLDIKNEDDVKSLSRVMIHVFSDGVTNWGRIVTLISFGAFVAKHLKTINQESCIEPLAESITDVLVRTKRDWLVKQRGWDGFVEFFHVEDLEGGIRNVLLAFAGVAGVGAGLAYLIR
The target in assay [8] is Phosphorylase b kinase gamma catalytic chain, liver/testis isoform (Homo sapiens, UniProt P15735). Type of assay: functional.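 Note: PHKG2 measured as one member of a kinome-wide kinase panel.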
Sequence of Phosphorylase b kinase gamma catalytic chain, liver/testis isoform (P15735 whole entry, canonical isoform): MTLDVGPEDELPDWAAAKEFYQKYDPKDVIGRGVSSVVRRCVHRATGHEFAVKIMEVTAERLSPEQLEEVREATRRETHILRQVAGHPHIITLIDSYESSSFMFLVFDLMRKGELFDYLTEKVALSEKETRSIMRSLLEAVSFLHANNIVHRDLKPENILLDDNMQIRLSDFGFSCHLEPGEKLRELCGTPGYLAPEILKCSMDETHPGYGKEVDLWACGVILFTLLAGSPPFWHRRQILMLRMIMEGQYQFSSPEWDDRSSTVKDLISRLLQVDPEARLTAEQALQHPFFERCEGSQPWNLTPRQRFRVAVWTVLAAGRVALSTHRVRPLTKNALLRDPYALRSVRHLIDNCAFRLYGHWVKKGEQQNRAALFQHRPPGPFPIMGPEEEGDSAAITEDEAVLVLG
In assay [9] the target is Casein kinase I isoform alpha (Homo sapiens, UniProt P48729). Type of assay: functional.
In assay [10] the target is Casein kinase II subunit alpha (Homo sapiens, UniProt P68400). Type of assay: functional.
For assay [11], the target named is Protein kinase C iota type (Homo sapiens, UniProt P41743). It is filed as functional.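 Note: measured within a kinome-wide kinase panel, PRKCI as panel member.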
Assay [12] addresses High affinity nerve growth factor receptor (Homo sapiens, UniProt P04629). It is filed as functional.
Assay [13] addresses Testis-specific serine/threonine-protein kinase 1 (Homo sapiens, UniProt Q9BXA7). Type of assay: functional.
Assay [14] deals with Insulin receptor (Homo sapiens, UniProt P06213). Type of assay: functional.
Assay [15] concerns the target Tyrosine-protein kinase SYK (Homo sapiens, UniProt P43405). It is filed as functional.
The target in assay [16] is Calcium/calmodulin-dependent protein kinase type II subunit gamma (Homo sapiens, UniProt Q13555). It is filed as functional.
The target of assay [17] is Interleukin-1 receptor-associated kinase 1 (Homo sapiens, UniProt P51617). Type of assay: functional.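 Note: IRAK1 tested as one member of a kinome panel.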
Assay [18] addresses Serine/threonine-protein kinase MRCK alpha (Homo sapiens, UniProt Q5VT25). Type of assay: functional.
Assay [19] concerns the target Dual specificity tyrosine-phosphorylation-regulated kinase 3 (Homo sapiens, UniProt O43781). Type of assay: functional.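 Note: measured as one member of a broad kinase panel.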
Assay [20] has as its target Serine/threonine-protein kinase PLK1 (Homo sapiens, UniProt P53350). Type of assay: functional.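 Note: PLK1 measured as one member of a kinome-wide profiling panel.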
Assay [21] has as its target ALK tyrosine kinase receptor (Homo sapiens, UniProt Q9UM73). It is filed as functional.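 Note: ALK tested as one member of a kinase panel screen.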
The target of assay [22] is Mitogen-activated protein kinase 14 (Homo sapiens, UniProt Q16539). Type of assay: functional.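 Note: part of a kinome-wide panel, MAPK14 entry.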
Sequence of Mitogen-activated protein kinase 14 (Q16539 whole entry): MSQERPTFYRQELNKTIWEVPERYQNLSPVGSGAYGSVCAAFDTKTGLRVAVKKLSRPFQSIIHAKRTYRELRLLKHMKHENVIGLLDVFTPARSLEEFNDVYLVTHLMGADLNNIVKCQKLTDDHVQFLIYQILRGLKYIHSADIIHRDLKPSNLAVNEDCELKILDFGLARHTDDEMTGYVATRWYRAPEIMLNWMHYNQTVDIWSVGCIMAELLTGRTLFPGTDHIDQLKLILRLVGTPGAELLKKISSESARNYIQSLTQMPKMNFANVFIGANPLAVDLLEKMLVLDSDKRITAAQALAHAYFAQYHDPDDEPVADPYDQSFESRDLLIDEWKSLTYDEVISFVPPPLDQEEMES
The target of assay [23] is Serine/threonine-protein kinase 3 (Homo sapiens, UniProt Q13188). It is filed as functional.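 Note: measured as one member of a kinome-wide kinase panel.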
Assay [24] deals with Casein kinase I isoform delta (Homo sapiens, UniProt P48730). It is filed as functional.
Assay [25] concerns the target Tyrosine-protein kinase ABL1 (Homo sapiens, UniProt P00519). It is filed as functional.
Assay [26] deals with Ribosomal protein S6 kinase alpha-3 (Homo sapiens, UniProt P51812). Type of assay: functional.
Sequence of Ribosomal protein S6 kinase alpha-3 (P51812 whole entry): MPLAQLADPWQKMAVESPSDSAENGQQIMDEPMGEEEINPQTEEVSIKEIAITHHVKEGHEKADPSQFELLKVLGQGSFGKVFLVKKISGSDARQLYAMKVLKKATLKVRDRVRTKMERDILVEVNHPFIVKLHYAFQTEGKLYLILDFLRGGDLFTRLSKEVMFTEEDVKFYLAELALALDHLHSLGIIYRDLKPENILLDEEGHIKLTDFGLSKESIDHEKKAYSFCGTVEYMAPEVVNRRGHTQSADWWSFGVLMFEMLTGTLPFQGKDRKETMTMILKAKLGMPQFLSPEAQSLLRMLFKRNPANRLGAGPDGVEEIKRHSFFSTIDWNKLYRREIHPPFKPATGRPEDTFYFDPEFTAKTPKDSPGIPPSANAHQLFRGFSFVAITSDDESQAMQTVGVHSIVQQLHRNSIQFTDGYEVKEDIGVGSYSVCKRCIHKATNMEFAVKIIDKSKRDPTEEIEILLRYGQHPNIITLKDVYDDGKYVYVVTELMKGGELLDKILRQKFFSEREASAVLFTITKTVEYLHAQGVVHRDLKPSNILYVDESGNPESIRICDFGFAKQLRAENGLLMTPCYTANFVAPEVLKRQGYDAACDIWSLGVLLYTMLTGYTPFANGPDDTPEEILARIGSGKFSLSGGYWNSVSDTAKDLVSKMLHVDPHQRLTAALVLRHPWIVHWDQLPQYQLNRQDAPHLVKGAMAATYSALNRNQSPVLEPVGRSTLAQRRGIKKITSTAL
In assay [27] the target is Tyrosine-protein kinase BTK (Homo sapiens, UniProt Q06187). It is filed as functional.
Sequence of Tyrosine-protein kinase BTK (Q06187 whole entry): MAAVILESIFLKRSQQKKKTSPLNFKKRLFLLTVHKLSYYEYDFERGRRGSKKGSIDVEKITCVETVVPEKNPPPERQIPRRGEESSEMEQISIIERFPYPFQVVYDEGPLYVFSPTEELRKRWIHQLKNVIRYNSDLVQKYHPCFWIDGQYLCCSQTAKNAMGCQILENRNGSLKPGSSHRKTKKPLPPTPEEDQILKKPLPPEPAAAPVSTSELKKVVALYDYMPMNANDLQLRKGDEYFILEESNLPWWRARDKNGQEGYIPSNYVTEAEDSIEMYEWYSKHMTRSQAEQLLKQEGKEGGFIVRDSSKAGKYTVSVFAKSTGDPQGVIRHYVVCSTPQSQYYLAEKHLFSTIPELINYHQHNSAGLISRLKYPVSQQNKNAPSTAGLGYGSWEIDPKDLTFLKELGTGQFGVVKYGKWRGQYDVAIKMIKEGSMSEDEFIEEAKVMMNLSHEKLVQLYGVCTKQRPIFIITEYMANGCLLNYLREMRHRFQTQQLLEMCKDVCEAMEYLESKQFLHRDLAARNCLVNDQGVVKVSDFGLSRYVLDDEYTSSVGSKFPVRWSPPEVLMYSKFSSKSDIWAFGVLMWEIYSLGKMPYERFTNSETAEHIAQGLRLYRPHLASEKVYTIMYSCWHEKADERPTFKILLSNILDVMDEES
Assay [28] deals with Mitogen-activated protein kinase kinase kinase kinase 2 (Homo sapiens, UniProt Q12851). Type of assay: functional.
In assay [29] the target is Misshapen-like kinase 1 (Homo sapiens, UniProt Q8N4C8). Type of assay: functional.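 Note: kinome panel screen with MINK as the panel member.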
In assay [30] the target is Serine/threonine-protein kinase PAK 4 (Homo sapiens, UniProt O96013). It is filed as functional.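 Note: value obtained within a kinome profiling panel in which PAK4 was one of the panel members.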
Sequence of Serine/threonine-protein kinase PAK 4 (O96013 whole entry): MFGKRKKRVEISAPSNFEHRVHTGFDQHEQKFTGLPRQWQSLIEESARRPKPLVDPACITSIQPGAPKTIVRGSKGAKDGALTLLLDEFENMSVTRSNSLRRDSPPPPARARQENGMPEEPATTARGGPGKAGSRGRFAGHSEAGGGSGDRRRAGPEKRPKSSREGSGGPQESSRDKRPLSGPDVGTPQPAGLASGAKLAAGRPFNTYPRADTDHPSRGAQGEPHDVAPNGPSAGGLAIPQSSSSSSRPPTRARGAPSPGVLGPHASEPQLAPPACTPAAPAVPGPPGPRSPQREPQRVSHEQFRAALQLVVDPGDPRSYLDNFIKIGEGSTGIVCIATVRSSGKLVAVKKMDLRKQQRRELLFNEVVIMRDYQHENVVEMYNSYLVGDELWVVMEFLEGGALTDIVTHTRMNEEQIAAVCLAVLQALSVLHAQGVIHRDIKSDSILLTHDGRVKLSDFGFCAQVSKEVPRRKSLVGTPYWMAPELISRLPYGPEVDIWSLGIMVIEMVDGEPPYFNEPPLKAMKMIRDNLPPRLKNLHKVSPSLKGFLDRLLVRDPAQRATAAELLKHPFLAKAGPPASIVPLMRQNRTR

Sequence of Serine/threonine-protein kinase MRCK alpha (Q5VT25 whole entry): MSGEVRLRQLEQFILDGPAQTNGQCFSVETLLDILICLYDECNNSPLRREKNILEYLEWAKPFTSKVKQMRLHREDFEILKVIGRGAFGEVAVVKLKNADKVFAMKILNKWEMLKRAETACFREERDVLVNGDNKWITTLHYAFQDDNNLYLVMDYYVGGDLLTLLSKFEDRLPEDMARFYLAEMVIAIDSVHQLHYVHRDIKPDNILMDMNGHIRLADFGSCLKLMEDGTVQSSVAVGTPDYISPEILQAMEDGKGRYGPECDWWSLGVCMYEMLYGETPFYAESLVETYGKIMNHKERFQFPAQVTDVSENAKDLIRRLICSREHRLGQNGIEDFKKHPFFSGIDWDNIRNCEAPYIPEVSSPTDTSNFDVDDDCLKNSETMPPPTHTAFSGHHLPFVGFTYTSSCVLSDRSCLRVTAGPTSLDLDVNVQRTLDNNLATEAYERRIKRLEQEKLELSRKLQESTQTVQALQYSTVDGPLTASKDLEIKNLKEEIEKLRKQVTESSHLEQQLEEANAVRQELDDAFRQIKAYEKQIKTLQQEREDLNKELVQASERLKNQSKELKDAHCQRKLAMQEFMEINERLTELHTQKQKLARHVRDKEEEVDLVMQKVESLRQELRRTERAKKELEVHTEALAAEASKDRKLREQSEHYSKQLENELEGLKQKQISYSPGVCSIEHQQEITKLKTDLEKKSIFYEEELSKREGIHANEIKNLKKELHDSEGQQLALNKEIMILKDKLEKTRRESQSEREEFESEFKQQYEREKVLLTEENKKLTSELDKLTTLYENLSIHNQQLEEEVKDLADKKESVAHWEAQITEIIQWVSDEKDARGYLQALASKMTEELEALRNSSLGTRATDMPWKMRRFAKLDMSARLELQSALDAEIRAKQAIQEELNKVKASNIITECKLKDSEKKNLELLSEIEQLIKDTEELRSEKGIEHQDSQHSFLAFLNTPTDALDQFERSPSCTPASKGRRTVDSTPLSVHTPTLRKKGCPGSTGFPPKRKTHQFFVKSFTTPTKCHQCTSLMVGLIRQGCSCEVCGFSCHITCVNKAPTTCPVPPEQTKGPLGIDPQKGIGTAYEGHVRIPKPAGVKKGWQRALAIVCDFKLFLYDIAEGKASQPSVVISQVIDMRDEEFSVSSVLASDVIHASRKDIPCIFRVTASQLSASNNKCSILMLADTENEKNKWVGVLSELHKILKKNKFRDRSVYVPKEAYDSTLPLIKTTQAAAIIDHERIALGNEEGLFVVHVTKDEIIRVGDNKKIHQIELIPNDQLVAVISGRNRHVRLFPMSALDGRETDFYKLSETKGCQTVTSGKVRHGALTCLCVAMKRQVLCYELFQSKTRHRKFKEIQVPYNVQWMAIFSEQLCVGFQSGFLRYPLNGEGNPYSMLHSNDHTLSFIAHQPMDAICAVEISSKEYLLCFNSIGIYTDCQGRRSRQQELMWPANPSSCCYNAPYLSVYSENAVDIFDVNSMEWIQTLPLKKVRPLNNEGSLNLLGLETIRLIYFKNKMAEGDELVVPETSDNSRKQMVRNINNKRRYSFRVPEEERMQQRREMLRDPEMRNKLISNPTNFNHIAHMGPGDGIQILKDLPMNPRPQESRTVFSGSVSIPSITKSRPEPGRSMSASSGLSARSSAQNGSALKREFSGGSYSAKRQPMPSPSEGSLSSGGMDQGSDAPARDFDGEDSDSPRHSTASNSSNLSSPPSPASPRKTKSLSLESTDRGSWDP

With `NS(=O)(=O)c1ccc(NC2=CC(=O)C(=O)c3ccccc32)cc1`, the IC50 in assay [1] was 2110 nM (active); in assay [3] it was 38900 nM (not active). In addition, the EC50 in assay [2] is 667 nM (active).
Consider `CCC(=O)NC(c1ccccc1OC)c1ccc2cccnc2c1O` (stereo not given), for which the AC50 in [4] is 35000 nM (active). Further, in [5], the EC50 was 1670 nM (active).
On to `O=C(N/N=C/c1ccc(O)cc1O)c1ccc(CN2C(=O)c3cccc4cccc2c34)cc1`, for which the EC50 in assay [6] is > 85300 nM (inactive). For the same molecule, the IC50 in assay [7] was 1470 nM (active).
Turning to `Clc1cc(-c2c[nH]c3ncccc23)nc(NC2CCCCC2)n1`, the Ki in assay [8] is > 5010 nM (inactive); in [9], 1580 nM (active); in assay [10] it was 398 nM (active); in assay [11], > 5010 nM (inactive); in assay [12], 2000 nM (active); in [13], > 1580 nM (inactive). Also, the Ki in assay [14] was 3160 nM (active); in assay [15], > 1580 nM (inactive); in assay [16] it was 501 nM (active); in [17], 50.1 nM (active); in assay [18], 126 nM (active); in assay [19], 7.94 nM (active). Further, the Ki in [20] was 501 nM (active); in [21], > 3980 nM (inactive); in assay [22], > 3980 nM (inactive); in [23], > 1580 nM (inactive); in assay [24], 63.1 nM (active); in assay [25] it was > 631 nM (inactive). Besides, the Ki in assay [26] is > 2000 nM (inactive); in [27], > 3980 nM (inactive); in assay [28], > 1260 nM (inactive); in assay [29] it was 7.94 nM (active); in assay [30], > 2000 nM (inactive).
